From patent publication US5955479A, “Levobupivacaine for managing chronic pain” (Darwin Discovery Ltd., priority 1993, dated 1999)
Structures can show the parent of a compound that is named as a salt.

How the values were obtained:
[1] = Fatal dose of racbupivacaine HCl in sheep (increasing bolus doses until a fatal outcome); type: in vivo
Method: (§1) Four sheep weighing 39-49 kg (mean 44, SD 4 kg) were given increasing bolus doses (from 40 mg) of racbupivacaine HCl These were administered at least 1 day apart via a PVC cannula until a fatal outcome resulted. The heart and brain were removed within 20 min of death to be analysed for bupivacaine concentration. The heart was removed by transection through the great vessels approximately 20 mm above the level of the aortic valve, and 20 mm below the caudal border of the right atrium. Blood was immediately expressed from the cardiac chambers, and representative samples of the left and right atrium and ventricle were obtained, blotted and stored frozen (-20° C.) until assay. The brain was removed by transection at the level of the lower border of the pons, blotted and stored frozen as for the heart tissue.

[2] = surgical wound infiltrated before closure, 0.25%; cited from earlier work
[3] = chronic epidural and opioid infusions, 0.1 to 0.5% bupivacaine, cancer pain; cited from earlier work
[4] = some pain syndromes; cited from earlier work
[5] = Tissue concentrations of bupivacaine enantiomers in sheep post-mortem after increasing bolus doses of racbupivacaine HCl until fatal outcome; type: in vivo
Method: as §1
The variability in the fatal doses (80-200 mg) was reflected in the tissue concentrations measured post-mortem. Larger differences in the concentrations of both bupivacaine enantiomers in the atrium and ventricle were apparent.

[6] = Vanhoutte et al (1991); Denson et al (1992); cited from earlier work
[7] = described in PCT/GB94/02249; cited from earlier work
[8] = sheep No. 1, fatal dose 80 mg racbupivacaine HCl
[9] = sheep No. 2, fatal dose 80 mg racbupivacaine HCl
[10] = sheep No. 3, fatal dose 200 mg racbupivacaine HCl
[11] = sheep No. 4, fatal dose 200 mg racbupivacaine HCl
[12] = levobupivacaine vs dexbupivacaine

Structure (SMILES): CCCCN1CCCCC1C(=O)Nc1c(C)cccc1C (racemic) [racbupivacaine HCl]
- Fatal doses (variability) ([1]; four sheep, increasing bolus doses): 80 to 200 mg
- Fatal dose ([1]; sheep No. 1, increasing bolus doses): 80 mg
- Fatal dose ([1]; sheep No. 2, increasing bolus doses): 80 mg
- Fatal dose ([1]; sheep No. 3, increasing bolus doses): 200 mg
- Fatal dose ([1]; sheep No. 4, increasing bolus doses): 200 mg

Structure (SMILES): CCCCN1CCCCC1C(=O)Nc1c(C)cccc1C (racemic) [racemic bupivacaine, 1-butyl-N-(2,6-dimethylphenyl)-2-piperidinecarboxamide]
- Control of post-operative pain [2]: effective in the control of post-operative pain
- Opioid requirements of patients recovering from herniorrhaphy [2]: reduce the opioid requirements
- Bupivacaine clearance [3]: progressive reduction in bupivacaine clearance
- Analgesic usefulness in chronic administration [4]: useful in chronic administration as an analgesic in some pain syndromes
- R:S ratio of tissue concentration, Atrium [5, 8]: 0.92
- R:S ratio of tissue concentration, Brain [5, 8]: 1.06
- R:S ratio of tissue concentration, Ventricle [5, 8]: 1.18
- R:S ratio of tissue concentration, Atrium [5, 9]: 1.08
- R:S ratio of tissue concentration, Brain [5, 9]: 1.08
- R:S ratio of tissue concentration, Ventricle [5, 9]: 1.05
- R:S ratio of tissue concentration, Atrium [5, 10]: 0.99
- R:S ratio of tissue concentration, Brain [5, 10]: 1.09
- R:S ratio of tissue concentration, Ventricle [5, 10]: 1.03
- R:S ratio of tissue concentration, Atrium [5, 11]: 1.02
- R:S ratio of tissue concentration, Brain [5, 11]: 1.08
- R:S ratio of tissue concentration, Ventricle [5, 11]: 1.03

Structure (SMILES): CCCCN1CCCC[C@@H]1C(=O)Nc1c(C)cccc1C [dexbupivacaine]
- Uptake of enantiomers by ventricle and brain ([5]; both P=0.03 by the Students paired t test, four sheep): more (+)-(R)- than (-)-(S)-bupivacaine being taken up by these tissues
- Uptake of enantiomers by atrium ([5]; four sheep, difference R vs S): This was not so for the atrium
- Tissue concentration, Atrium [5, 8]: 5.70 µg/g
- Tissue concentration, Brain [5, 8]: 6.91 µg/g
- Tissue concentration, Ventricle [5, 8]: 9.93 µg/g
- Tissue concentration, Atrium [5, 9]: 3.94 µg/g
- Tissue concentration, Brain [5, 9]: 4.97 µg/g
- Tissue concentration, Ventricle [5, 9]: 7.70 µg/g
- Tissue concentration, Atrium [5, 10]: 17.9 µg/g
- Tissue concentration, Brain [5, 10]: 12.7 µg/g
- Tissue concentration, Ventricle [5, 10]: 45.6 µg/g
- Tissue concentration, Atrium [5, 11]: 21.5 µg/g
- Tissue concentration, Brain [5, 11]: 17.2 µg/g
- Tissue concentration, Ventricle [5, 11]: 34.1 µg/g

Structure (SMILES): CCCCN1CCCC[C@H]1C(=O)Nc1c(C)cccc1C [levobupivacaine]
- Cardiotoxicity relative to dexbupivacaine and racemic bupivacaine [6]: probably less cardiotoxic than dexbupivacaine and racemic bupivacaine
- Accumulation in the heart and brain [5, 12]: does not accumulate in the heart and brain as much as the other component (dexbupivacaine)
- Tissue uptake into ventricle and brain vs dexbupivacaine [5, 12]: less tissue uptake of levobupivacaine into ventricle and brain than dexbupivacaine
- Clearance ([5]; levobupivacaine vs dexbupivacaine, inferred from tissue uptake): improved clearance
- Tissue concentration, Atrium [5, 8]: 6.22 µg/g
- Tissue concentration, Brain [5, 8]: 6.53 µg/g
- Tissue concentration, Ventricle [5, 8]: 8.44 µg/g
- Tissue concentration, Atrium [5, 9]: 3.65 µg/g
- Tissue concentration, Brain [5, 9]: 4.59 µg/g
- Tissue concentration, Ventricle [5, 9]: 7.36 µg/g
- Tissue concentration, Atrium [5, 10]: 18.0 µg/g
- Tissue concentration, Brain [5, 10]: 11.7 µg/g
- Tissue concentration, Ventricle [5, 10]: 44.1 µg/g
- Tissue concentration, Atrium [5, 11]: 21.2 µg/g
- Tissue concentration, Brain [5, 11]: 16.3 µg/g
- Tissue concentration, Ventricle [5, 11]: 33.3 µg/g
- Cardiodepressant effect relative to racemic bupivacaine [7]: reduced cardiodepressant effect
